Like-named read-outs stand apart in the source and are kept apart here. Where no end group is shown, it is not given here.
How the values were obtained:
[1] = target: DP401 (DPA1*0103/DPB1*0401) (Homo sapiens, UniProt P04440+P20036); assay: Direct LOCI peptide-MHC-II binding assay, DP401
DR3 (DRA*0101/DRB1*0301) = target: T1, DR3 (DRA*0101/DRB1*0301) (Homo sapiens, UniProt P01903+P01911, A100K/A102G/A103R/A169T/F55Y/I96L/K41T/L162R/M171V/P40S/Q125H/Q178H/Q39Y/R42S/S66N/T106N/T262R/W38E/Y61H); assay: Direct LOCI peptide-MHC-II binding assay, DR3
T1 construct: DRA*01011-181LZFos; DRB1*03011-190LZJunBSP; made in house

DR1 (DRA*0101/DRB1*0101) = DR1 (DRA*0101/DRB1*0101) (Homo sapiens, UniProt P01903+P01911, A100R/D57E/F55L/F60I/F76Y/I96L/L162R/M171V/P40L/Q125E/R42F/V115G/Y59C); assay: Competitive peptide-HLA-DR1 binding assay, radioactive spun column
[2] = target: T2, DRB1*0813 (DRA*0101/DRB1*0813) (Homo sapiens, UniProt P01903+P01911, A100R/A103L/A169T/F76Y/H45Y/I96L/K41T/L162R/M171V/P40S/Q125H/Q178H/Q39Y/Q99D/R218S/R42G/S66Y/V115G/W38E); assay: Direct LOCI peptide-MHC-II binding assay, DRB1*0813
T2 construct: DRA*01011-181LZFos; DRB1*08131-190LZJunBSP; made in house

[3] = target: T3, DR2a (DRA*0101/DRB5*0101) (Homo sapiens, UniProt P01903+Q30154); assay: Direct LOCI peptide-MHC-II binding assay, DR2a
T3 construct: DRA*01011-181LZFos; DRB5*01011-190LZJunBSP; made in house

DR4 = target: T4, DR4 (Homo sapiens, UniProt P01903+P01911); assay: ELISA-based peptide-MHC class II binding assay, DR4
T4 construct: made in house

[4] = target: T3, DR2a (DRA*0101/DRB5*0101); assay: Competitive LOCI peptide-MHC-II binding assay, DR2a
DR2 (DR2a) = target: T5, DR2 (DR2a) (Homo sapiens, UniProt P01903+Q30154); assay: ELISA-based peptide-MHC class II binding assay, DR2
T5 construct: DR2a: DRA*0101_1–181/DRB5*0101_1–190; made in house

[5] = target: T6, DRB3*0301 (DRA*0101/DRB3*0301) (Homo sapiens, UniProt P01903+P79483, A169T/A212P/D57E/G115V/L67V/Q178H/R103Q/R40L/Y55F); assay: Direct LOCI peptide-MHC-II binding assay, DRB3*0301
T6 construct: DRA*01011-181LZFos; DRB3*03011-190LZJunBSP; made in house

DR4 (DRA*0101/DRB1*0401) = target: T7, DR4 (DRA*0101/DRB1*0401) (Homo sapiens, UniProt P01903+P01911, A100K/A169T/F76Y/I96L/K127E/L162R/M171V/N62H/P40V/Q125Y/R42H/S133A/S149N/S66Y/V115G/V209L/W38E); assay: Direct LOCI peptide-MHC-II binding assay, DR4
T7 construct: DRA*01011-181LZFos; DRB1*04011-190LZJunBSP; made in house

DR1 [6] = target: T8, DR1 (Homo sapiens, UniProt P01903+P01911, A100R/D57E/F55L/F60I/F76Y/I96L/L162R/M171V/P40L/Q125E/R42F/V115G/Y59C); assay: Effects of additives on the refolding of DR1, spun column assay; assay type: biochemical; conditions: for Harmfull (to DR1 refolding): additive titrated in refolding buffer pH 8 without glycerol, 3 nM 125I YHA306-318, 80 nM DR1 α and β chains
DR1 [7] = target: T8, DR1; assay: biochemical; assay type: binding
I-E^d = target: T9, I-E^d (Mus musculus, UniProt P01904+P01915); assay: Direct LOCI peptide-MHC-II binding assay, I-E^d
T9 construct: I-E^dA1-191LZFos; I-E^dB1-198LZJunBSP; made in house

[8] = refolding buffer pH 8 without glycerol, 3 nM 125I YHA306-318, 80 nM DR1

`CSCC[C@H](NC(=O)[C@@H]1CCCN1C(=O)[C@H](CC(C)C)NC(=O)[C@H](C)NC(=O)[C@H](CCC(N)=O)NC(=O)[C@H](CCSC)NC(=O)[C@H](CC(C)C)NC(=O)[C@H](CC(C)C)NC(=O)[C@@H]1CCCN1C(=O)[C@@H](NC(=O)[C@H](C)NC(=O)[C@H](CCSC)NC(=O)[C@H](CCCNC(=N)N)NC(=O)[C@H](CCSC)NC(=O)[C@H](CCCCN)NC(=O)[C@H](CO)NC(=O)[C@@H](NC(=O)[C@@H]1CCCN1C(=O)[C@H](CCCCN)NC(=O)[C@@H]1CCCN1C(=O)[C@@H]1CCCN1C(=O)[C@H](CCCCN)NC(=O)[C@@H]1CCCN1C(=O)[C@H](CC(C)C)NC(=O)[C@@H](N)Cc1ccc(O)cc1)C(C)C)[C@@H](C)O)C(=O)O` [CLIP] was tested, and the Kd ([1]; read-out: DP401 affinity) was 4 nM, the Kd (DR3 (DRA*0101/DRB1*0301); read-out: DR3 affinity) was 0.001 µM and the IC50 (DR1 (DRA*0101/DRB1*0101); competition with 3 nM 125I labelled (Y)HA306–318, 80 nM DR1 α and β chain, 24 h, spun column, some ligand depletion expected, read-out: IC50) was 0.04 µM. For the same molecule, the Kd ([2]; read-out: DRB1*0813 affinity) was 0.002 µM, the Kd ([3]; read-out: DR2a pH6 affinity) was 0.001 µM and the EC50 (DR4; ELISA, L243 detection, α/β 31 and 1 nM, refolding buffer pH 8, 24 h 18°C, peptide concentration in nM per legend, read-out: EC50 DR4) was 9.7 nM. It also gave an IC50 ([4]; competitive LOCI, 4 nM biotin-PEG-HA306–318 agonist, β chain without biotin, α/β 13/5 nM, pH 6-7.5, L243, 48 h 18°C, average of 2–4 measurements, read-out: DR2a Komp IC50) of 1 nM, an EC50 (DR2 (DR2a); ELISA, L243 detection, α/β 31 and 1 nM, refolding buffer pH 8, 24 h 18°C, peptide concentration in nM per legend, read-out: EC50 DR2) of 0.7 nM and a Kd ([5]; read-out: DRB3*0301 affinity) of 0.001 µM. It also gave a Kd (DR4 (DRA*0101/DRB1*0401); read-out: DR4 affinity) of 2 nM.
For `[Cl-].[Na+]` [NaCl, Sodium Chloride], the “Harmfull (to DR1 refolding)” value (DR1 [6]) was “Yes” and the “additive concentration at 50 % signal reduction” value (DR1 [6]; [8]) was 100 mM.
`Oc1ccc(Cl)cc1` [parachlorophenol (pCP), parachlorophenol] was tested, and the “Harmfull (to DR1 refolding)” value (DR1 [6]) was “Yes” and the “additive concentration at 50 % signal reduction” value (DR1 [6]; [8]) was 4 mM.
In the case of `CCCCCCCCO[C@@H]1O[C@H](CO)[C@@H](O)[C@H](O)[C@H]1O` [Beta octyl glucoside], the “Harmfull (to DR1 refolding)” value (DR1 [6]) is reported as “No” and the “Ok up to” value (DR1 [6]; [8]) is reported as “Ok up to 0.5 w/w %”.
With YKYVKQNTLKLAT [HA306-318] the Kd ([1]; pH 7, 48 h 18°C, read-out: DP401 affinity) was greater than 5000 nM, the Kd (DR3 (DRA*0101/DRB1*0301); pH 6-7, 48 h 18°C, read-out: DR3 affinity) was 0.013 µM and the IC50 (DR1 (DRA*0101/DRB1*0101)) was 0.034 µM. The Kd ([2]; pH 6-7.5, 48 h 18°C, read-out: DRB1*0813 affinity) was 0.011 µM, the Kd ([3]; pH 6, 48 h 18°C, read-out: DR2a pH6 affinity) was 0.01 µM and the EC50 (DR4) was 43.1 nM. It also gave an IC50 ([4]; pH 6-7.5, 48 h 18°C, read-out: DR2a Komp IC50) of 2 nM, an EC50 (DR1 [7]) of 0.0022 µM and an EC50 (DR2 (DR2a)) of 1.2 nM. The Kd ([5]; pH 7, 48 h 18°C, read-out: DRB3*0301 affinity) was 0.004 µM, the Kd (I-E^d; 48 h 18°C, read-out: I-E^D affinity) was 25 nM and the Kd (DR4 (DRA*0101/DRB1*0401); pH 6-7.5, 48 h 18°C, read-out: DR4 affinity) was 8 nM.
For `CC(C)O` [Isopropanol], the “Harmfull (to DR1 refolding)” value (DR1 [6]) was “Yes” and the “additive concentration at 50 % signal reduction” value (DR1 [6]; [8]) was 5 Vol %.
For `CCCCCCCCCCCC(=O)N(C)CC(=O)O` [N-Laurylsarcosin], the “Harmfull (to DR1 refolding)” value (DR1 [6]) was “Yes” and the “additive concentration at 50 % signal reduction” value (DR1 [6]; [8]) was 0.01 Vol %.
In the case of `NC(N)=O` [Urea], the “Harmfull (to DR1 refolding)” value (DR1 [6]) is reported as “Yes/No” and the “Ok up to (harmful at higher concentrations)” value (DR1 [6]; [8]) is reported as “Ok up to 400 mM. Harmfull at higher concentrations”.
Molecule `CC[C@H](C)[C@H](NC(=O)[C@H](Cc1c[nH]cn1)NC(=O)[C@H](Cc1c[nH]cn1)NC(=O)[C@H](Cc1c[nH]cn1)NC(=O)[C@H](Cc1c[nH]cn1)NC(=O)[C@H](Cc1c[nH]cn1)NC(=O)[C@H](Cc1c[nH]cn1)NC(=O)[C@@H](N)Cc1ccc(O)cc1)C(=O)N[C@@H](CCC(=O)O)C(=O)NCC(=O)N[C@@H](CCCNC(=N)N)C(=O)N[C@@H](CO)C(=O)N[C@@H](Cc1ccccc1)C(=O)N[C@@H](CCC(=O)O)C(=O)N[C@@H](CCCNC(=N)N)C(=O)N[C@@H](Cc1ccccc1)C(=O)N[C@@H](CCC(=O)O)C(=O)N[C@H](C(=O)N[C@@H](Cc1ccccc1)C(=O)N1CCC[C@H]1C(=O)N[C@@H](CCCCN)C(=O)N[C@@H](CCC(=O)O)C(=O)O)[C@@H](C)CC` [6xH Influenza A (PR8) HA 109–119] has a Kd [1] of 1 nM, a Kd (DR3 (DRA*0101/DRB1*0301)) of 1.43 µM and a Kd [2] of 0.181 µM. It also gave a Kd [3] of 0.009 µM, an IC50 [4] of 23 nM and a Kd [5] of 1.53 µM. It also gave a Kd (I-E^d) of 984 nM and a Kd (DR4 (DRA*0101/DRB1*0401)) of 1870 nM.
`CCC(C)O` (centres unmarked) [2-Butanol] was tested, and the “Harmfull (to DR1 refolding)” value (DR1 [6]) was “Yes” and the “additive concentration at 50 % signal reduction” value (DR1 [6]; [8]) was 2.5 Vol %.
With `CC[C@H](C)[C@H](NC(=O)[C@@H](N)Cc1ccc(O)cc1)C(=O)N[C@@H](CC(=O)O)C(=O)N[C@H](C(=O)N[C@@H](Cc1c[nH]c2ccccc12)C(=O)N[C@@H](CC(C)C)C(=O)NCC(=O)NCC(=O)N[C@@H](CC(C)C)C(=O)N[C@@H](C)C(=O)N[C@@H](CCC(=O)O)C(=O)N[C@@H](CC(N)=O)C(=O)N[C@@H](Cc1ccccc1)C(=O)N[C@@H](CC(C)C)C(=O)N1CCC[C@H]1C(=O)N[C@@H](Cc1ccc(O)cc1)C(=O)O)C(C)C` [Thyroid peroxidase] the Kd ([1]; DP401 affinity (nM)) was 602 nM, the Kd (DR3 (DRA*0101/DRB1*0301)) was greater than 5 µM and the Kd [2] was greater than 5 µM. It also gave a Kd [3] of 2.14 µM, an IC50 ([4]; DR2a Komp IC50 (nM)) of 691 nM and a Kd [5] of 3.18 µM. It also gave a Kd (I-E^d; I-E^D affinity (nM)) greater than 5000 nM and a Kd (DR4 (DRA*0101/DRB1*0401); DR4 affinity (nM)) greater than 5000 nM.
In the case of `OCC(O)CO` [Glycerol], the “Harmfull (to DR1 refolding)” value (DR1 [6]) is reported as “No” and the “effect on DR1 refolding (in words)” value (DR1 [6]; refolding buffer pH 8, 3 nM 125I YHA306-318, 80 nM DR1) is reported as “Enhances folding in whole range tested”.
With `C[C@H](CCC(=O)O)[C@H]1CC[C@H]2[C@@H]3CC[C@@H]4C[C@H](O)CC[C@]4(C)[C@H]3C[C@H](O)[C@]12C` [DOC, Deoxycholate] the “Harmfull (to DR1 refolding)” value (DR1 [6]) was “Yes/No” and the “Positive effect up to (harmful at higher concentrations)” value (DR1 [6]; [8]) was “Positive effect up to 0.02 % Harmfull at higher concentrations”.

— paper PMC2690590, “Functional recombinant MHC class II molecules and high-throughput peptide-binding assays” (Immunome Research, 2009)
